In BigSolDB 2.1:

O=c1cnc(Br)c[nH]1
solubility (mole fraction)
Details | in DMF | in acetone | in acetonitrile | in ethanol | in ethylene glycol | in isopropanol | in methanol | in n-propanol | in propylene glycol | in water
278.15 K | 0.00576 | 0.00534 | 0.00413 | 0.000696 | 0.00014 | 0.00258 | 0.000272 | 0.00382 | 0.000194 | 8.21e-06
283.15 K | 0.00768 | 0.00685 | 0.00519 | 0.000989 | 0.000203 | 0.00333 | 0.000366 | 0.00472 | 0.00025 | 1.29e-05
288.15 K | 0.00988 | 0.00877 | 0.00625 | 0.00128 | 0.000284 | 0.00439 | 0.000485 | 0.00579 | 0.000338 | 1.81e-05
293.15 K | 0.0124 | 0.0106 | 0.00766 | 0.00166 | 0.000386 | 0.00534 | 0.000633 | 0.0072 | 0.000448 | 2.46e-05
298.15 K | 0.0151 | 0.013 | 0.00941 | 0.0021 | 0.000504 | 0.00678 | 0.000782 | 0.00879 | 0.000589 | 3.2e-05
303.15 K | 0.0181 | 0.0161 | 0.0113 | 0.00251 | 0.00065 | 0.00863 | 0.000951 | 0.0106 | 0.000766 | 4.13e-05
308.15 K | 0.0219 | 0.0194 | 0.0136 | 0.00303 | 0.000845 | 0.0109 | 0.00116 | 0.0129 | 0.000961 | 5.32e-05
313.15 K | 0.026 | 0.023 | 0.0161 | 0.0036 | 0.00111 | 0.0135 | 0.0014 | 0.0152 | 0.00121 | 6.69e-05
318.15 K | 0.0309 | 0.0275 | 0.019 | 0.00434 | 0.00139 | 0.0168 | 0.00169 | 0.018 | 0.00152 | 8.43e-05
323.15 K | 0.0365 | 0.0328 | 0.0222 | 0.00525 | 0.00174 | 0.0205 | 0.00203 | 0.0213 | 0.00187 | 0.000106
